Measured values as given in the supplement of paper PMC10307832.

Each cell line was assayed with C1CCC(CC1)N(CCNCCC2=C3C(=C(C=C2)O)NC(=O)CO3)C(=O)CCNCCC4=CC(=C(C=C4)Cl)Cl [AZ505] (assay: relative viability (nuclei count vs DMSO), 5 days (fraction); higher = more cells survive). Settings: 0.08 µM.
Procedure, shortened: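 Lung cancer cell lines were seeded into 1536-well plates, kept overnight at 37 °C and pinned with five library-drug doses (not always all listed) spaced by √10. After 5 days, nuclei were Hoechst-stained, imaged at 4× and counted with MetaXpress. Viability is treated-well nuclei over vehicle-well nuclei, taken as a median across plates. Plates needed control CV below 25% and at least one doubling.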
NCI-H1395 showed a relative viability of 0.901. 201T was tested, and the relative viability was 0.962. With NCI-H1915 the relative viability was 0.954. In the case of HCC-827, the relative viability is reported as 0.992. For LXF-289, the relative viability was 0.967. Cell Line NCI-H23 has a relative viability of 0.848. NCI-H1299 was tested, and the relative viability was 0.981. With NCI-H647 the relative viability was 0.943. CAL-12T showed a relative viability of 0.909. Cell Line NCI-H1651 has a relative viability of 0.927. With EPLC-272H the relative viability was 0.817. For NCI-H2228, the relative viability was 0.897. In the case of NCI-H1792, the relative viability is reported as 0.757. For NCI-H1355, the relative viability was 0.928. Work on NCI-H3122 yielded a relative viability of 0.972. With NCI-H1437 the relative viability was 0.977. NCI-H1755 showed a relative viability of 0.93. NCI-H2023 showed a relative viability of 0.901. With HCC-15 the relative viability was 0.938. NCI-H1793 showed a relative viability of 0.805. PC-14 showed a relative viability of 0.915. Work on EKVX yielded a relative viability of 0.957. LC-2-ad was tested, and the relative viability was 0.902. NCI-H1563 gave a relative viability of 0.998. Work on NCI-H1944 yielded a relative viability of 0.949. With NCI-H1975 the relative viability was 0.831. For RERF-LC-KJ, the relative viability was 0.947. In the case of ABC-1, the relative viability is reported as 0.899. For NCI-H358, the relative viability was 0.785. Cell Line NCI-H650 has a relative viability of 1.01. In the case of PC-3 [JPC-3], the relative viability is reported as 0.956.

Same assay, conditions: 0.253 µM
Cell Line NCI-H1395 has a relative viability of 0.815. In the case of 201T, the relative viability is reported as 0.998. For NCI-H1915, the relative viability was 1.06. HCC-827 gave a relative viability of 1.03. For LXF-289, the relative viability was 0.98. In the case of NCI-H1299, the relative viability is reported as 0.968. NCI-H647 showed a relative viability of 1.01. For CAL-12T, the relative viability was 0.941. NCI-H1651 showed a relative viability of 0.984. EPLC-272H was tested, and the relative viability was 0.812. For NCI-H2228, the relative viability was 0.859. Work on NCI-H1355 yielded a relative viability of 0.854. NCI-H3122 was tested, and the relative viability was 1.01. Cell Line NCI-H1437 has a relative viability of 1. NCI-H1755 showed a relative viability of 1.05. With NCI-H2023 the relative viability was 0.936. With HCC-15 the relative viability was 0.963. For NCI-H1793, the relative viability was 0.883. With PC-14 the relative viability was 0.96. Work on EKVX yielded a relative viability of 0.961. In the case of LC-2-ad, the relative viability is reported as 0.922. Cell Line NCI-H1563 has a relative viability of 1.04. NCI-H1944 showed a relative viability of 0.989. Cell Line NCI-H1975 has a relative viability of 0.848. Work on RERF-LC-KJ yielded a relative viability of 0.968. In the case of ABC-1, the relative viability is reported as 0.963. Work on NCI-H358 yielded a relative viability of 0.829. Cell Line NCI-H650 has a relative viability of 0.887. In the case of PC-3 [JPC-3], the relative viability is reported as 0.978.

Same assay, conditions: 0.8 µM
With NCI-H1395 the relative viability was 0.879. Work on 201T yielded a relative viability of 0.98. In the case of NCI-H1915, the relative viability is reported as 0.945. HCC-827 was tested, and the relative viability was 0.982. LXF-289 showed a relative viability of 0.988. Work on NCI-H23 yielded a relative viability of 0.874. NCI-H1299 gave a relative viability of 0.969. NCI-H647 showed a relative viability of 0.996. With CAL-12T the relative viability was 0.967. With NCI-H1651 the relative viability was 0.977. In the case of EPLC-272H, the relative viability is reported as 0.755. NCI-H2228 was tested, and the relative viability was 0.821. With NCI-H1792 the relative viability was 0.803. In the case of NCI-H1355, the relative viability is reported as 0.97. In the case of NCI-H3122, the relative viability is reported as 0.975. NCI-H1437 gave a relative viability of 0.983. For NCI-H1755, the relative viability was 0.962. For NCI-H2023, the relative viability was 0.931. Cell Line HCC-15 has a relative viability of 1.03. Work on NCI-H1793 yielded a relative viability of 0.83. PC-14 gave a relative viability of 0.947. EKVX showed a relative viability of 0.952. With LC-2-ad the relative viability was 1.01. Cell Line NCI-H1563 has a relative viability of 0.968. Cell Line NCI-H1944 has a relative viability of 1.06. NCI-H1975 showed a relative viability of 0.951. Work on RERF-LC-KJ yielded a relative viability of 0.925. Work on ABC-1 yielded a relative viability of 0.975. With NCI-H358 the relative viability was 0.812. NCI-H650 gave a relative viability of 0.948. For PC-3 [JPC-3], the relative viability was 0.974.

Same assay, conditions: 2.53 µM
In the case of NCI-H1395, the relative viability is reported as 0.903. 201T gave a relative viability of 0.974. NCI-H1915 showed a relative viability of 0.942. With HCC-827 the relative viability was 1.02. Cell Line LXF-289 has a relative viability of 1.02. NCI-H23 showed a relative viability of 0.995. For NCI-H1299, the relative viability was 0.948. With NCI-H647 the relative viability was 0.895. CAL-12T was tested, and the relative viability was 0.956. With NCI-H1651 the relative viability was 0.938. Work on EPLC-272H yielded a relative viability of 0.849. For NCI-H2228, the relative viability was 1.07. Work on NCI-H1792 yielded a relative viability of 0.947. Cell Line NCI-H1355 has a relative viability of 0.936. With NCI-H3122 the relative viability was 0.931. Work on NCI-H1437 yielded a relative viability of 1.01. Work on NCI-H1755 yielded a relative viability of 0.98. NCI-H2023 gave a relative viability of 0.923. HCC-15 gave a relative viability of 0.956. Cell Line NCI-H1793 has a relative viability of 0.768. PC-14 gave a relative viability of 0.955. For EKVX, the relative viability was 0.89. LC-2-ad was tested, and the relative viability was 1.07. In the case of NCI-H1563, the relative viability is reported as 0.93. Cell Line NCI-H1944 has a relative viability of 0.861. NCI-H1975 showed a relative viability of 0.901. For RERF-LC-KJ, the relative viability was 0.953. In the case of ABC-1, the relative viability is reported as 0.985. NCI-H358 showed a relative viability of 0.755. Work on NCI-H650 yielded a relative viability of 1.1. PC-3 [JPC-3] gave a relative viability of 0.926.

Same assay, conditions: 8 µM
Cell Line NCI-H1395 has a relative viability of 1.03. 201T showed a relative viability of 1.01. Cell Line NCI-H1915 has a relative viability of 0.949. For HCC-827, the relative viability was 1.08. With LXF-289 the relative viability was 1.01. NCI-H23 gave a relative viability of 1.12. In the case of NCI-H1299, the relative viability is reported as 1. With NCI-H647 the relative viability was 1.02. Cell Line CAL-12T has a relative viability of 1.03. In the case of NCI-H1651, the relative viability is reported as 1.04. For EPLC-272H, the relative viability was 0.92. In the case of NCI-H2228, the relative viability is reported as 0.885. In the case of NCI-H1792, the relative viability is reported as 0.945. Work on NCI-H1355 yielded a relative viability of 1.03. Work on NCI-H3122 yielded a relative viability of 1.02. For NCI-H1437, the relative viability was 0.991. NCI-H1755 gave a relative viability of 0.958. With NCI-H2023 the relative viability was 0.957. For HCC-15, the relative viability was 1.1. NCI-H1793 gave a relative viability of 0.976. In the case of PC-14, the relative viability is reported as 1.04. With EKVX the relative viability was 1.03. Cell Line LC-2-ad has a relative viability of 0.998. Cell Line NCI-H1563 has a relative viability of 0.939. NCI-H1944 showed a relative viability of 1.02. Work on NCI-H1975 yielded a relative viability of 0.972. RERF-LC-KJ showed a relative viability of 0.943. Cell Line ABC-1 has a relative viability of 1.05. With NCI-H358 the relative viability was 0.925. Cell Line NCI-H650 has a relative viability of 1.01. In the case of PC-3 [JPC-3], the relative viability is reported as 1.07.
